# Source: patent US7335640B2, “Administration of hypocretin-1 for treatment of narcolepsy” (The Regents of the University of California, priority 1999, dated 2008)
# Entries after “also recorded” stand apart in the source; their conditions may differ.
# Columns and labels:
# [1] = tested on: genetically narcoleptic Doberman pinschers; test: modified food elicited cataplexy test (FECT); assay type: in vivo; conditions: for cataplexy (number of cataplectic attacks): FECT 4 min after administration; for FECT time (time to consume the food) / cataplexy (number of cataplectic attacks / falls): vs saline control
# Procedure: (§1) Six genetically narcoleptic Doberman pinschers (5 males and 1 female) served as subjects. We analyzed the effect of systemically administered Hcrt-1 on cataplexy with a modified food elicited cataplexy test (FECT). The effect of Hcrt-1 administration on sleep organization was determined using polygraph recording. The effect of Hcrt-1 administration on activity levels and the duration of sleep-waking states over the 24-hr period was determined with actigraphy.
# (§2) One to 4 μg/kg of Hcrt-1 (orexin-A, #003-30, Phoenix Pharmaceuticals, Mountain View, Calif.) dissolved in normal saline (100 μg in 2 ml) was administered through the cephalic vein using a glass syringe. The glass syringe was pre-soaked in 1% BSA, rinsed in Milli-Q water, then dried at 60° C. prior to use. This treatment combined with the large volume of the dilutent used minimizes problems caused by the “stickiness” of the peptide. On control days, saline was administered in the same manner. Hcrt-1 or control injections were administered daily at the same time.
# FECT was done by introducing a bowl of soft food (Pedigree, by Kalkan) in the home cage and counting the number of cataplectic attacks (including hind limb collapse and total cataplexies in which all four limbs collapse and the whole body contacts the floor) and total time required to eat the food (FECT time). All the FECTs began 4 min after the administration of Hcrt-1 or saline.
# (§3) Data were analyzed with ANOVA, followed by post-hoc comparisons using Newman-Keuls tests. Bonferroni t-tests were done to compare the effect of Hcrt-1 on sleep stages measured with polygraphic recording. One sample t-tests were performed to test the significance of number of cataplectic attacks and FECT time (expressed as a percentage of baseline) after Hcrt-1 within each dose.
# [2] = Hcrt-1 levels by solid-phase RIA, narcoleptic dog; assay type: in vivo
# Procedure: In order to assess the effect of the intravenous Hcrt-1 injection on central levels of the compound, cerebrospinal fluid (CSF) and blood serum was collected and analyzed after infusion of Hcrt-1. In these studies, Hcrt-1 was injected intravenously as in the behavioral studies into two Doberman pinschers, one narcoleptic, and one control that had been anesthetized with Fluothane anesthesia. Saline was injected in a third dog, a non-narcoleptic control. Prior to injection and at 15, 30 min and one hour intervals after injection, CSF was collected from the cisterna magna with a spinal needle and then quickly frozen at −20. Hypocretin was extracted from 0.5-1 ml samples with reverse a phase SEP-PAK C18 column. An ^125I Hcrt-1 radioimmunoassay was used to measure levels in reconstituted aliquots (described below).
# (§4) Prior to RIA, Hcrt-1 is extracted from the CSF or plasma sample. This is achieved by acidification of the sample with 1% TFA followed by loading onto a C18 Sep-Column, washing the column with 1% TFA, and eluting the peptide with 1% TFA/40% acetonitrile. The eluant is then dried down and re-suspended in RIA buffer ready for assay.
# The 96-well plates are first coated with protein A(Sigma, binding capacity 9-11 mg of human IgG per mg) by adding 0.1 μg in 100 μl of 0.1M sodium bicarbonate, pH9, to each well. The plates are normally prepared in advance and can be stored for several weeks at 4° C. when tightly wrapped to prevent drying out. However, it is possible to use them after approximately 2 h incubation at room temperature. The protein A solution is then discarded and the plates washed 3 times in a wash buffer consisting of 0.15M K2HPO4, 0.2 mM ascorbic acid, 0.2% Tween 20, pH7.5 and blotted on a paper towel. Next, 200 μl of assay buffer (same as wash buffer plus 0.1% gelatin) is pipetted into each well and left at room temperature for 30 min. This step is included in an attempt to remove protein A bound with only low affinity to the plate which might otherwise dissociate at later stages in the assay thereby removing bound antibody and tracer. After dumping this solution and blotting, 50 μl of the appropriate concentration of antibody diluted with assay buffer is added to all but 4 wells. To these 4 wells are added assay buffer alone to provide an index of non-specific binding. The antibody dilution used is that which is pre-determined to produce 20-30% maximum binding in the assay. The wells are then left for 2 h at room temperature. […]
# A 2 h pre-incubation period at room temperature then follows. […] Subsequently the contents of the wells are discarded and the wells washed 3 times with wash buffer and blotted prior to addition of Microscint 20 and counting in the Top Count plate reader. […]
# [3] = Hcrt-1 levels by solid-phase RIA, normal human; assay type: in vivo
# Procedure: as §4
# The 96-well plates are first coated with protein A(Sigma, binding capacity 9-11 mg of human IgG per mg) by adding 0.1 μg in 100 μl of 0.1M sodium bicarbonate, pH9, to each well. The plates are normally prepared in advance and can be stored for several weeks at 4° C. when tightly wrapped to prevent drying out. However, it is possible to use them after approximately 2 h incubation at room temperature. The protein A solution is then discarded and the plates washed 3 times in a wash buffer consisting of 0.15M K2HPO4, 0.2 mM ascorbic acid, 0.2% Tween 20, pH7.5 and blotted on a paper towel. Next, 200 μl of assay buffer (same as wash buffer plus 0.1% gelatin) is pipetted into each well and left at room temperature for 30 min. This step is included in an attempt to remove protein A bound with only low affinity to the plate which might otherwise dissociate at later stages in the assay thereby removing bound antibody and tracer. After dumping this solution and blotting, 50 μl of the appropriate concentration of antibody diluted with assay buffer is added to all but 4 wells. To these 4 wells are added assay buffer alone to provide an index of non-specific binding. The antibody dilution used is that which is pre-determined to produce 20-30% maximum binding in the assay. The wells are then left for 2 h at room temperature.
# Standard solutions of Hcrt-1 are prepared in quadruplet ranging from 0.1 to 50 fmol in 50 μl. These standards (plus four blanks) are made up in RIA buffer. All dilutions are carried out in polypropylene tubes to minimize loss due to ‘sticking’. The contents of each tube are then transferred to the assay wells following dumping of the antibody solution, washing 3 times with wash buffer and blotting.
# A 2 h pre-incubation period at room temperature then follows. At the end of this time 50 μl of assay buffer containing approximately 5,000 CPM of ^125I-labeled tracer peptide is added to each well and the plate left to incubate overnight at 4° C. (this final incubation step can be reduced to approx. 2 h with only slight loss of sensitivity). Subsequently the contents of the wells are discarded and the wells washed 3 times with wash buffer and blotted prior to addition of Microscint 20 and counting in the Top Count plate reader. Results from the Solid-Phase Radioimmunoassay (RIA) for Hypocretin (Hcrt-1) are shown below in Table I: […]
# [4] = tested on: genetically narcoleptic Doberman pinschers; test: health and behavior observed throughout the study; assay type: in vivo
# Procedure: as §1, §2
# Hcrt-1 antiserum = test: solid-phase radioimmunoassay (RIA) for Hcrt-1; assay type: binding; conditions: competition with 125I-labeled Hcrt-1
# Description: Furthermore, sensitivity is increased over that obtained with more traditional methods using identical antibodies and assay volumes. In this system, the antibody is immobilized onto the surface of 96-well Immulon II-coated plates (Dynatech) through attachment of the constant region of the immunoglobulin (Ig) molecule to the purified bacterial wall protein-protein A (the use of this protein greatly increases the capacity of the wells for antibody thereby avoiding the necessity for antibody purification). […] After a pre-determined incubation period separation of bound from free tracer peptide is accomplished by simply pouring out the contents of the wells and washing with buffer. For example, the individual wells of a 96-well plate containing Ab-bound tracer peptide are then physically separated and counted in a gamma counter. […]
# The Hcrt-1, iodinated Hcrt-1, and Hcrt-1 antiserum were obtained from Phoenix Pharmaceuticals, Inc. (530 Harbor Blvd, Belmont, Calif.). […] This enables direct reading of radioactivity in a Top Count plate reader (Packard) without the requirement to separate out individual wells.
# The 96-well plates are first coated with protein A(Sigma, binding capacity 9-11 mg of human IgG per mg) by adding 0.1 μg in 100 μl of 0.1M sodium bicarbonate, pH9, to each well. […] The antibody dilution used is that which is pre-determined to produce 20-30% maximum binding in the assay. […]
# [5] = tested on: genetically narcoleptic Doberman pinschers; test: polygraphic recording of sleep-wake parameters; assay type: in vivo
# Procedure: as §1
# One to 4 μg/kg of Hcrt-1 (orexin-A, #003-30, Phoenix Pharmaceuticals, Mountain View, Calif.) dissolved in normal saline (100 μg in 2 ml) was administered through the cephalic vein using a glass syringe. The glass syringe was pre-soaked in 1% BSA, rinsed in Milli-Q water, then dried at 60° C. prior to use. This treatment combined with the large volume of the dilutent used minimizes problems caused by the “stickiness” of the peptide. […]
# Polygraphic recording. […] Polygraphic variables were recorded for 4 hrs after Hcrt-1 (3 μg/kg) or saline injection.
# as §3
# REM sleep = conditions: intracerebroventricular administration; cited from earlier work
# [6] = tested on: genetically narcoleptic Doberman pinschers; test: actigraphy of sleep-wake periods and activity level; assay type: in vivo
# Procedure: as §1, §2
# The effects of Hcrt-1 on sleep-wake periods were monitored continuously for 24 hrs/day with collar mounted actigraphs (Actiwatch, Mini Mitter Inc, Sundriver, Oreg.) while the animals remained in their home dog runs. Actigraphs were secured to a neck collar that was placed on the dogs throughout the period of study. Data were downloaded to a PC through an inductively coupled Actiwatch reader and further analyzed by a program of our design. The program could integrate total numbers of movements above a preset amplitude for a measurement of total level of activity in 5 minutes epochs. For analysis of sleep state, actigraphs were first calibrated by placing them on an animal instrumented for conventional polygraphic recording. A threshold was determined for discriminating polygraphically defined waking and sleep in 30-sec epochs. The durations of sleep periods were then counted and tabulated by computer. The sleep-wake bouts measured by actigraph correlated well with hypnograms obtained from polygraphic recording (r=0.84, p<0.001).
# as §3
# Actigraph measurements were used to calculate the duration of sleep and waking states for the nights following injection. First, comparisons of actigraphic measurements and polygraphically recorded sleep states were made and used to determine thresholds for distinguishing sleep and wake periods. Then wake and sleep state periods were quantified starting 2 hrs following administration. […] These effects lasted for more than 24 hrs (p<0.01, F=5.56, df=3, 15 and p<0.002, F=8.58, df=3, 15 for sleep and wake periods respectively). The frequency of sleep and wake bouts was reduced (p<0.05, F=3.35, df=3, 15 and p<0.05, F=3.40, df=3, 15, respectively) (FIG. 2b, 2c).
# [7] = in vivo; cited from earlier work
# [8] = 3 μg/kg, representative actigraph record
# [9] = single dose, from 2 hrs after administration
substance,measurement,setting,value
"Hcrt-1: Hcrt-1 (orexin-A, #003-30, Phoenix Pharmaceuticals) peptide dissolved in normal saline (QPLPDCCRQKTCSCRLYELLHGAGNHAAGILTL; Orexin-A; UniProt O43612 34-66, looked up)",cataplexy (number of cataplectic attacks),[1]; 1 μg/kg intravenous,did not produce any change in cataplexy; also recorded: did not affect cataplexy
same,cataplexy (number of cataplectic attacks),[1]; 2 μg/kg intravenous,did not produce any change in cataplexy; also recorded: did not affect cataplexy
same,FECT time (time to consume the food),[1]; 3 μg/kg intravenous,reduction in the FECT time; also recorded: significant decrease
same,cataplexy (number of cataplectic attacks / falls),[1]; 3 μg/kg intravenous,reduction in cataplexy; also recorded: significant decrease in the number of falls
same,FECT time (time to consume the food),[1]; 4 μg/kg intravenous,significantly increased the FECT time
same,cataplexy (number of cataplectic attacks / falls),[1]; 4 μg/kg intravenous,significantly increased the severity of cataplexy; also recorded: significantly increased the number of falls
same,effect on cataplexy across doses,"[1]; 1 to 4 μg/kg intravenous, ANOVA",significant effect on cataplexy in a dose dependent manner; also recorded: dose dependent change in cataplexy
same,period without any cataplexy after repeated doses,"[1]; after 3-5 doses, two of the 3 dogs treated",≥ 3 days
same,time taken to finish the food during the period without cataplexy,[1]; after repeated doses,significantly reduced
same,period over which severity of cataplexy returned to pretreatment levels,"[1]; after repeated doses, both dogs",3 to 4 days
same,cataplexy after five doses (FIG. 1D),"[1]; five doses, more severely affected dog",complete suppression of cataplexy during the FECT observed on 3 tests given every other day over a 6 day period
same,cataplexy after three doses (FIG. 1C),"[1]; three doses, one dog",complete suppression of cataplexy for three consecutive days
same,Mean level,[2]; Blood serum,0.011 nM
same,Range in levels,[2]; Blood serum,5 to 16 fmol/mL
same,Mean level,[2]; Cerebrospinal fluid,0.053 nM
same,Range in levels,[2]; Cerebrospinal fluid,26 to 140 fmol/mL
same,Mean level,[3]; Blood serum,0.01 nM
same,Range in levels,[3]; Blood serum,8 to 14 fmol/mL
same,Mean level,[3]; Cerebrospinal fluid,0.062 nM
same,Range in levels,[3]; Cerebrospinal fluid,21 to 203 fmol/mL
same,feeding / rate of food consumption,[4]; period of cataplexy suppression after repeated doses,normal feeding during FECTs; also recorded: consumed their food at a normal rate
same,abnormal behaviors,[4]; throughout the study,"no grooming, “wet dog shakes” or other abnormal behaviors"
same,general health of the dogs,[4]; throughout the study,excellent health
same,IC50 value for this Hcrt-1 assay,Hcrt-1 antiserum,2 fmol
same,REM sleep,"[5]; 3 μg/kg, 4 hr post-injection period, vs saline",significant reduction; also recorded: significant decrease in REM sleep
same,nonREM sleep,[5]; after Hcrt-1 administration,without change
same,REM sleep,REM sleep,selective suppression of REM sleep
same,motor activity,"[6]; 3 μg/kg, after injection, vs saline",increased motor activity; also recorded: increase of motor activity was statistically significant at 0-30 and 30-60 minutes
same,onset of increase in motor activity after injection,[6]; [8],≤ 5 min
same,persistence of increase in motor activity,[6]; [8],60 min
same,sleep consolidation (sleep bout length),"[6]; periods of cataplexy suppression following repeated doses, vs baseline",consolidated (increased sleep bout length)
same,frequency of sleep bouts,[6]; single dose,reduced; also recorded: decrease in frequency
same,frequency of wake bouts,[6]; single dose,reduced
same,how long the effects on sleep and wake period duration lasted,[6]; single dose,more than 24 hrs
same,mean duration of sleep periods (sleep bout duration),[6]; [9],increased; also recorded: significant increase in sleep bout duration
same,mean duration of wake periods,[6]; [9],increased
same,total duration of sleep,[6]; vs pre-drug levels,"increased after Hcrt-1 as compared to pre-drug levels, but not significantly"
"iodinated Hcrt-1: iodinated Hcrt-1 reported in the literature to pass the BBB (QPLPDCCRQKTCSCRLYELLHGAGNHAAGILTL; Orexin-A iodinated; UniProt O43612 34-66, looked up)",passage of the BBB,[7],passes the BBB
